Data on 21 compounds can be found in ChEMBL document CHEMBL1201862, “PubChem BioAssay data set” (2004).

Active and inactive are the calls of the source.

In experiment [1] the target is T1, Fatty acid synthase (Homo sapiens, UniProt P49327). As to the kind of experiment: FAS thioesterase domain inhibitors, dose response, biochemical, endpoint fluorescence intensity, uHTS hits (AID 624327).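 Further: fluorescence from hydrolysis of an O-methyl fluorescein acyl ester substrate by the enzyme.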 Format: functional.
T1 sequence (P49327 whole entry, the tested form may be a part): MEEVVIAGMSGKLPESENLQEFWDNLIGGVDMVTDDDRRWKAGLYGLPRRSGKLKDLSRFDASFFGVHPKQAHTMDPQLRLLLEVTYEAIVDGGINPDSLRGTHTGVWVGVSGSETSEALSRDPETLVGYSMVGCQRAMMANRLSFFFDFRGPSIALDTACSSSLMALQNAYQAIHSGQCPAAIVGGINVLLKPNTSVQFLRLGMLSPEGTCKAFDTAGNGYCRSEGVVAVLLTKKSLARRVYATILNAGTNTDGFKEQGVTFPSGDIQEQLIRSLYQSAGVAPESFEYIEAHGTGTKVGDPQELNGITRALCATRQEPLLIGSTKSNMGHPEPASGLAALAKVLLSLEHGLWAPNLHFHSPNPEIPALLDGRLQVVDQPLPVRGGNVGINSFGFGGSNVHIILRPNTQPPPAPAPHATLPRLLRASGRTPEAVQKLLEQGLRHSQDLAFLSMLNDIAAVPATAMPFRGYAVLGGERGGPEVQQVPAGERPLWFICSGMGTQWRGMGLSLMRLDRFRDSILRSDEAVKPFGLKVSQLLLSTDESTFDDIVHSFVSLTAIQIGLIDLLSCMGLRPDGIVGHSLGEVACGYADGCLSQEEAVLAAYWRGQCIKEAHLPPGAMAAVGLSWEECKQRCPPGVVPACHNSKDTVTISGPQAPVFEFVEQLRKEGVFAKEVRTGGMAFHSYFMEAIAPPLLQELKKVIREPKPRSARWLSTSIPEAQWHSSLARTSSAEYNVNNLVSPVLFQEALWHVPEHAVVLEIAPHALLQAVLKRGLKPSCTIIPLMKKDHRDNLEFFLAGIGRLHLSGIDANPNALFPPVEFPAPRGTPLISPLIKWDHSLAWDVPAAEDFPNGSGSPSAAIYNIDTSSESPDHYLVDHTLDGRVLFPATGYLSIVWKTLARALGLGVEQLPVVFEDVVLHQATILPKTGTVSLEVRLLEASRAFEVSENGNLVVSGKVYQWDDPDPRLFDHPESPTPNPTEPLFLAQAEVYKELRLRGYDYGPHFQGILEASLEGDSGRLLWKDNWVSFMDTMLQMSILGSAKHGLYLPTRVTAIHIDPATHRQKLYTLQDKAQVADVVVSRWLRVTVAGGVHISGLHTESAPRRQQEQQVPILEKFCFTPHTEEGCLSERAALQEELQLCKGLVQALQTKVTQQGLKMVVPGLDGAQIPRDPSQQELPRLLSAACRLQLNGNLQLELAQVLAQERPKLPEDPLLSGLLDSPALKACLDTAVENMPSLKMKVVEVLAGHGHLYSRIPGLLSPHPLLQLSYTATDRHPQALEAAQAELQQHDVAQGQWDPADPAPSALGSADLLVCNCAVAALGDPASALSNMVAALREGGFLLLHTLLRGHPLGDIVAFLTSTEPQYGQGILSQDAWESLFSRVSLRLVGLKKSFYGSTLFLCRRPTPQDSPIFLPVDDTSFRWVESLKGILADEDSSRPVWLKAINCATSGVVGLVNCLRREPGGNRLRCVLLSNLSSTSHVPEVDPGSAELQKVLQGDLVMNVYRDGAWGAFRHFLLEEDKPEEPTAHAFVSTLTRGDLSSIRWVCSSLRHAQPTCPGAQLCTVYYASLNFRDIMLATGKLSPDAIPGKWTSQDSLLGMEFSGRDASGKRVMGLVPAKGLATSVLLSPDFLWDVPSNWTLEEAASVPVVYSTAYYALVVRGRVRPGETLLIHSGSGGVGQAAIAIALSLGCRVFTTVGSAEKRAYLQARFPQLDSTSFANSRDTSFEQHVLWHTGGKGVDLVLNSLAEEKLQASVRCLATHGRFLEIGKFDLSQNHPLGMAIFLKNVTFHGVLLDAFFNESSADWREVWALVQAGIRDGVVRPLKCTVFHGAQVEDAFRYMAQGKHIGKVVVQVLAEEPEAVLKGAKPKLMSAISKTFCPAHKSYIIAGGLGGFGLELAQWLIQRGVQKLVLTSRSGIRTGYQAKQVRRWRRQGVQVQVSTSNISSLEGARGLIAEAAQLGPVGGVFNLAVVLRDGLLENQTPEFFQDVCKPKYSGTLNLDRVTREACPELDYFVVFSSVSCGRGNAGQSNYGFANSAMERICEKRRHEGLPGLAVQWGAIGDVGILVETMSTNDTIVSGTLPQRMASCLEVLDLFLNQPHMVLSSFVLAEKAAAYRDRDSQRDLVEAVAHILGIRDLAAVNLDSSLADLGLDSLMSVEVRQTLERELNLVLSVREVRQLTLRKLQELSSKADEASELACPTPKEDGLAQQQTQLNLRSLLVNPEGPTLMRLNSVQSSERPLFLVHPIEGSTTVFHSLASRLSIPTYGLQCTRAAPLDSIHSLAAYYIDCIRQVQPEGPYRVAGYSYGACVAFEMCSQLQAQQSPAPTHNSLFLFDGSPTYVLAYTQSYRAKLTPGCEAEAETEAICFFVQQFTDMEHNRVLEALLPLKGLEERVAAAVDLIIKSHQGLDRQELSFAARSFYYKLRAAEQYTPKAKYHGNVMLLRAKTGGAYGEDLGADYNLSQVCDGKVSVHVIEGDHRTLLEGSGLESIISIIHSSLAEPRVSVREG
Experiment [2] addresses T1, Fatty acid synthase. Put plainly: FAS thioesterase domain inhibitors, dose response, biochemical, kinetic fluorescence intensity (AID 624326).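 Further: rate of fluorescence rise from hydrolysis of a fluorogenic O-methyl fluorescein ester substrate.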 Format: functional.
Experiment [3] concerns the target T2, Corticotropin-releasing factor receptor 2/Corticotropin-releasing factor-binding protein (Homo sapiens, UniProt P24387+Q13324).
T2 sequence (Q13324 whole entry): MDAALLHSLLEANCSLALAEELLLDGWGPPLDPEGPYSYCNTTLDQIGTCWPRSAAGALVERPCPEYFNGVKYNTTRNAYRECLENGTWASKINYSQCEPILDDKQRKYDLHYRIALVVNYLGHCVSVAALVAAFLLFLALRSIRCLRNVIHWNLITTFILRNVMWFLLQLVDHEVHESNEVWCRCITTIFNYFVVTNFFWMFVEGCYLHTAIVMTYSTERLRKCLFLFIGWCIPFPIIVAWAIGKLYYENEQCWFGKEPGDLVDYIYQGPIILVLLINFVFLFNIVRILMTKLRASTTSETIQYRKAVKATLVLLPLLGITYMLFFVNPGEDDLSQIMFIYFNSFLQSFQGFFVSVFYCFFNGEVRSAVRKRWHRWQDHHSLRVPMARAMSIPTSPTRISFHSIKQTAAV
T2 sequence (P24387 whole entry): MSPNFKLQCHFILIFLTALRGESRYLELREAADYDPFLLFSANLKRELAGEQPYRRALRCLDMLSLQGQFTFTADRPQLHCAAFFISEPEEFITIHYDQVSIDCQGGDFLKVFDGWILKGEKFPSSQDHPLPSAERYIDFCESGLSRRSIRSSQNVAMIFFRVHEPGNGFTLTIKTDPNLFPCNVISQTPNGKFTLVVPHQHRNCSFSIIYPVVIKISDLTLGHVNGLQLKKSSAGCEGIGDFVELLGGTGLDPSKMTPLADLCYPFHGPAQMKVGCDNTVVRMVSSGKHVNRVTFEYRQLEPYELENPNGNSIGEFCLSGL
As to the kind of experiment: Dose Response confirmation of uHTS hits for small molecule antagonists of the CRF-binding protein and CRF-R2 receptor complex. Type of experiment: functional. The conditions noted are these: read-out: IC50_Mean.

The target of experiment [4] is T2, Corticotropin-releasing factor receptor 2/Corticotropin-releasing factor-binding protein. Put plainly: activators of CRF receptor 2 with binding protein – uHTS hits, confirmation (AID 602473). Format: functional. The note with it: read-out: EC50_Mean.
Experiment [5] is described as follows: CRF-BP/CRF-R2 complex antagonists, dose response, cell-based, uHTS hits, 384-well (AID 651639). The note with it: read-out: IC50_Mean. Format: functional, Homo sapiens.
For experiment [6], the target named is T3, DNA repair protein RAD52 homolog (Homo sapiens, UniProt P43351).
T3 sequence (P43351 whole entry): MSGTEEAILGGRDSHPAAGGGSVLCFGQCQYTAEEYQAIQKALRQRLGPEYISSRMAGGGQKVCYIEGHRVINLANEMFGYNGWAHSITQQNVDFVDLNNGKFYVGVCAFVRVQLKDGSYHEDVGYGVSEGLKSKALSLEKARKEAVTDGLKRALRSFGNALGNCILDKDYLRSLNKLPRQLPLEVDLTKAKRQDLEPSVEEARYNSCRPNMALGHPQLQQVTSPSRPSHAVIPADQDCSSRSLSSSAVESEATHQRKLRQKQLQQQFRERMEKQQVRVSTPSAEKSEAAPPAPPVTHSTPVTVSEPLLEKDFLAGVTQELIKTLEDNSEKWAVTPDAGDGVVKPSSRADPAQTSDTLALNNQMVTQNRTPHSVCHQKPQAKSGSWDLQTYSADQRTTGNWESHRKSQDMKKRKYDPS
Format: functional, biochemical.

The target in experiment [7] is T4, Replicative DNA helicase DnaB (Mycobacterium tuberculosis, UniProt P9WMR3).
T4 sequence (P9WMR3 whole entry): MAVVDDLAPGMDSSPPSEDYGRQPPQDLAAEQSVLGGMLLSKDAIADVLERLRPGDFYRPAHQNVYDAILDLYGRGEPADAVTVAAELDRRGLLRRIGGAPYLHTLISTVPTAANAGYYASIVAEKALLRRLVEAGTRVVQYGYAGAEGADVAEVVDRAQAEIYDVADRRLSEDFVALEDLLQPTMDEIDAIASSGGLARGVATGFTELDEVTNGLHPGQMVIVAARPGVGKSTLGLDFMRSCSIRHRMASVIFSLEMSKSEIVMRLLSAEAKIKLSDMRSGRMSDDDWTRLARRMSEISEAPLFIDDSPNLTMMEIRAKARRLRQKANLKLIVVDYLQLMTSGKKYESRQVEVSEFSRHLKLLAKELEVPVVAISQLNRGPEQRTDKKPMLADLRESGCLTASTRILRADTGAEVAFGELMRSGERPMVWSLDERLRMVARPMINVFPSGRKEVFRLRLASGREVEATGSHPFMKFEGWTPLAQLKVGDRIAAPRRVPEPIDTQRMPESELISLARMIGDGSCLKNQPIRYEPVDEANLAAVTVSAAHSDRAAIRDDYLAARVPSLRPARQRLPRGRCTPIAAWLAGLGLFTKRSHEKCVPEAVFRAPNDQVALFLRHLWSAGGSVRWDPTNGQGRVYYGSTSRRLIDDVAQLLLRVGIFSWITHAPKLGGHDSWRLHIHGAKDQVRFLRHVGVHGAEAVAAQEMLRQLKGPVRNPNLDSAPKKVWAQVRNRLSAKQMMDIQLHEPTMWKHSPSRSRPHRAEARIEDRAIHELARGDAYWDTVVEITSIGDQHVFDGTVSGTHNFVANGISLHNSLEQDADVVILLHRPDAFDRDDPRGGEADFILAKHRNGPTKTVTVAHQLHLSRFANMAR
As to the kind of experiment: DnaB intein splicing inhibitors, dose response, biochemical, cell-free fluorescence (AID 449749). Type of experiment: functional.

Experiment [8] deals with T5, Protein RecA (Mycobacterium tuberculosis, UniProt P9WHJ3).
T5 sequence (P9WHJ3 whole entry): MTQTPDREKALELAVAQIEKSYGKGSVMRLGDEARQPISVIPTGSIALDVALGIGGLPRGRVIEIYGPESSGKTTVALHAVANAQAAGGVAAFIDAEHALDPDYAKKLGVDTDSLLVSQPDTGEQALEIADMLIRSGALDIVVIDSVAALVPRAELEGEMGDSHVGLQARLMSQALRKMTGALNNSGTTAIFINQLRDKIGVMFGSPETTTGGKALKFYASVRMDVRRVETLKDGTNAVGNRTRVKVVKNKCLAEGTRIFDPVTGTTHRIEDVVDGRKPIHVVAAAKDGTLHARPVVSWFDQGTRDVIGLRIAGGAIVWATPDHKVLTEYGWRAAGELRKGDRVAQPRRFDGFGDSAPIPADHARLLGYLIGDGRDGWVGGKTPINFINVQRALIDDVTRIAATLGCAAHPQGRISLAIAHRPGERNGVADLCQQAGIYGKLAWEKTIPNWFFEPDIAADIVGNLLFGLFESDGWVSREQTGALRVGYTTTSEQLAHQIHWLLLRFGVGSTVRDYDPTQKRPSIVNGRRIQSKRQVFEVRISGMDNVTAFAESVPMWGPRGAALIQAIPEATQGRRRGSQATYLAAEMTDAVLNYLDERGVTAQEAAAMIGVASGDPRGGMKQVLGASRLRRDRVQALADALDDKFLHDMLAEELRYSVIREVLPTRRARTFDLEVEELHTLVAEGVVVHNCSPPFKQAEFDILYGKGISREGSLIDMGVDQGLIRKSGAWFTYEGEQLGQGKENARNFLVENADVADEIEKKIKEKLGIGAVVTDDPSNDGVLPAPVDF
As to the kind of experiment: Fluorescence Cell-Free Homogeneous Dose Retest to Identify Inhibitors of RecA-Intein Splicing Activity. [Related pubchem assays (depositor defined):AID2097, AID2223, AID489010, AID492950]. Type of experiment: functional.

Experiment [9] concerns the target T6, Sentrin-specific protease 8 (Homo sapiens, UniProt Q96LD8).
T6 sequence (Q96LD8 whole entry): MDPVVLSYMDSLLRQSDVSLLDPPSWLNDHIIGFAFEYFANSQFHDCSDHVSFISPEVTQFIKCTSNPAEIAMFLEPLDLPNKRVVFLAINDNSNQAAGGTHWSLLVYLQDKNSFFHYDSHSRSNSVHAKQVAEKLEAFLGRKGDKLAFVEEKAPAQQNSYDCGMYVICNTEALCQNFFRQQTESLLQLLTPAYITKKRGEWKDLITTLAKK
Format: functional.

Experiment [10] has as its target T6, Sentrin-specific protease 8. Format: functional. This is another data set of the same source.
Experiment [11] is described as follows: cells. Type of experiment: functional, cell-based.
For experiment [12], the target named is Large T antigen (Simian virus 40, UniProt P03070). Format: functional, Betapolyomavirus macacae.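 Further: Confirmatory-stage PubChem screen for compounds that inhibit SV40 T antigen.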
Large T antigen, sequence (P03070 whole entry): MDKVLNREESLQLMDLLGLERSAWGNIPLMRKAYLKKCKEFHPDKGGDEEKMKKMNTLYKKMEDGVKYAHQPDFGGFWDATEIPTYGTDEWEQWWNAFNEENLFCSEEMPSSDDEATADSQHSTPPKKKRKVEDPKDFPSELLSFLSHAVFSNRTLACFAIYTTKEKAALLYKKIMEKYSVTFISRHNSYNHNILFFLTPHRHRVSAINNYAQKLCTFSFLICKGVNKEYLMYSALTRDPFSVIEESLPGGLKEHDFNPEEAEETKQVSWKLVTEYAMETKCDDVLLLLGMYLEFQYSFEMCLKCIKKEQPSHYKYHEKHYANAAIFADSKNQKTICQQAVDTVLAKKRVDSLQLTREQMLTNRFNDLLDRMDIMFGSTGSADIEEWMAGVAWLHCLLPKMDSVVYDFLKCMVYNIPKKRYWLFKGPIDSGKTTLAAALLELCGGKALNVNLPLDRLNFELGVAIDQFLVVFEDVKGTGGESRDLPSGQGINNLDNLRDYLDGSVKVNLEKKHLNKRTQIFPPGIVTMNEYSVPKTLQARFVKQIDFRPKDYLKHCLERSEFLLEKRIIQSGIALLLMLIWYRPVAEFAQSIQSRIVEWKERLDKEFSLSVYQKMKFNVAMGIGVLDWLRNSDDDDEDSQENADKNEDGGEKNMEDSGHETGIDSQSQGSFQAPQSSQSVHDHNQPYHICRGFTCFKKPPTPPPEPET
Experiment [13] can be described thus: microbe, parasite or virus in culture. Format: functional. The conditions noted are these: Mycobacterium tuberculosis.
Experiment [14] deals with Induced myeloid leukemia cell differentiation protein Mcl-1 (Homo sapiens, UniProt Q07820). Type of experiment: functional.
Induced myeloid leukemia cell differentiation protein Mcl-1, sequence (Q07820 whole entry): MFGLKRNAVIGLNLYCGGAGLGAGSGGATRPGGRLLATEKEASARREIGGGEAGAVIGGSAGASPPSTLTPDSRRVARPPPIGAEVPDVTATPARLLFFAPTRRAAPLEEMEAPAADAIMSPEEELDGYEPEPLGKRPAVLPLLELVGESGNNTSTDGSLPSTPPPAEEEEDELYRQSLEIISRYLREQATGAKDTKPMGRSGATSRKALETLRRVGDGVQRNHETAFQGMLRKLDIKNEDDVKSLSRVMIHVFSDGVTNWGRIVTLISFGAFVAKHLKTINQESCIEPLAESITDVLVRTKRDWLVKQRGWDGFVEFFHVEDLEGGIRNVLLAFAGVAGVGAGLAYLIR
Experiment [15] in a line: cytotoxicity in HEK-293T cells, dose response, cytotoxicity control for TCR NF-kB inhibitor project, luminescence, T-cell screen hits (AID 489026).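 Further: cells exposed to compound about 14 hours before the viability readout.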 Format: functional, cell-based.
The target in experiment [16] is Paired box protein Pax-8 (Homo sapiens, UniProt Q06710). As to the kind of experiment: inhibitors of PAX8-driven TPO luciferase reporter, dose response, RMG-I cells, cherry-pick (AID 687027).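 Further: luciferase reporter driven by Pax8 target thyroperoxidase promoter measured by SteadyGlo luminescence.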 Type of experiment: functional, cell-based.
Paired box protein Pax-8, sequence (Q06710 whole entry): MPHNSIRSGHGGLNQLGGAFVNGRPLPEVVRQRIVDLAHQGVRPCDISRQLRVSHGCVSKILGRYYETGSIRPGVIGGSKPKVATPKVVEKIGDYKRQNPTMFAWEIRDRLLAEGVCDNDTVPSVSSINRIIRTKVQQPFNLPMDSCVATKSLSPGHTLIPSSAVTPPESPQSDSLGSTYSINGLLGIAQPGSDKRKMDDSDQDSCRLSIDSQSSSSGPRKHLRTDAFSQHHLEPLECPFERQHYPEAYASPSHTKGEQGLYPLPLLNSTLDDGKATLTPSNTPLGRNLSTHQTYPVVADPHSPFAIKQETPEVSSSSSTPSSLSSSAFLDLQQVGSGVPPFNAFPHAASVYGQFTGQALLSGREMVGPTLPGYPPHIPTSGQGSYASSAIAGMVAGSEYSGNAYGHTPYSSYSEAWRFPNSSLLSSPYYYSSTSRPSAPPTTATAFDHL
For experiment [17], the system named is H9c2. As to the kind of experiment: cells. Type of experiment: functional, cell-based. The conditions noted are these: Rattus norvegicus, H9c2, Myocardium.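 Further: confirmatory concentration-response retest of ultra-high-throughput screening hits for modulation of myocardial damage; cell death induced by hydrogen peroxide oxidative stress; compound pretreatment for 60 min then peroxide exposure for 2 h; potency is for protecting the cells against peroxide damage rather than for killing them.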

As to `COc1cccc(CNC(=O)COC(=O)c2cc([N+](=O)[O-])ccc2N2CCCC2)c1`, the IC50 was 3.18 µM (active) in [1] and 1.23 µM (active) in [2].

`Cc1ccc(S(=O)(=O)c2nnn3c2nc(N2CCOCC2)c2ccccc23)cc1C`: the IC50 is 5.78 µM (active) in experiment [3] and 7.26 µM (active) in experiment [5]. The EC50 in experiment [4] was > 53 µM (inactive).

Take `OC(CN1CCNCC1)Cn1c2ccccc2c2ccccc21` (stereo not drawn): the AC50 in [6] is 20.7 µM (active).

On to `COc1cccc(N/C([S-])=C(/C(=O)c2ccc(OC(F)F)cc2)[n+]2ccccc2)c1`, for which the half-maximal activity concentration (AC50) in experiment [7] is 23.9 µM (active). Further, the EC50 in experiment [8] was 8.62 µM (active). The IC50 in [9] is 6 µM (active); in experiment [10], 3.93 µM (active).

On to `CCOC(=O)c1ccc(/N=c2\sc(C(=O)OC)cc(=O)n2CCCN2CCOCC2)cc1`, for which the figures for the IC50 in experiment [3] and in experiment [5] were 4.49 µM (active) and 4.53 µM (active), respectively. Besides, the EC50 in experiment [4] was > 53 µM (inactive).

In the case of `CC(NC(=O)C12CC3CC(CC(O)(C3)C1)C2)c1ccc(Cl)cc1Cl` (stereo not drawn), in experiment [11], the EC50 is recorded as > 350 µM (not active).

In the case of `O=C(NC(=O)c1ccccc1O)c1ccc(C(F)(F)F)cc1`, the IC50 in experiment [3] was 4.31 µM (active); in [5] it was 15 µM (active). Besides, the EC50 in experiment [4] was 9.51 µM (active).

On to `Cc1cc([N+](=O)[O-])nn1CC(=O)N/N=C/c1ccccc1Br`, for which the IC50 was 10.3 µM (active) in experiment [1] and 7.28 µM (active) in experiment [2].

Consider `O=C1NC(=S)N(C2CC2)C(=O)/C1=C/NNc1ccccc1`, for which the IC50 in experiment [12] is 8.87 µM (active).

As for `Cc1csc(N(C(=O)CCNC(=O)c2ccc([N+](=O)[O-])cc2)c2ccccc2)n1`, the IC50 was 5.73 µM (active) in experiment [1] and 4.74 µM (active) in experiment [2].

Consider `CN(C)CCNC(=O)c1cccc(-c2cnc3c(NC=O)cc(/C=C/c4ccccc4)cn23)c1`, for which, in experiment [6], the AC50 is 2.21 µM (active).

As for `Cc1cc(OC(=O)c2cccs2)c2c3c(c(=O)oc2c1)CCCC3`, the CC50 in experiment [13] is > 40 µM (active). Also, the IC50 in [3] was 16.4 µM (active); in experiment [5], > 20 µM (inactive). Besides, the EC50 in [4] was > 53 µM (inactive).

With `CC(C(=O)c1ccc(-c2ccccc2)cc1)[n+]1cccc(NC(=O)c2ccccc2)c1` (stereo not drawn), in experiment [6], the AC50 is 19.1 µM (active).

Take `Cn1c(N)c(C(=O)COC(=O)CNS(=O)(=O)c2ccc(Cl)c(Cl)c2)c(=O)n(C)c1=O`: the IC50 in experiment [3] is 30.8 µM (active); in experiment [5], 9.63 µM (active). For the same compound, in experiment [4], the EC50 was > 53 µM (inactive).

`CC(C)(C)c1ccc(C(=O)NCC(=O)OCc2ccc([N+](=O)[O-])cc2)cc1`: the IC50 in [1] was 2.66 µM (active); in experiment [2] it was 1.69 µM (active).

As for `CCOc1cc(/C=N/Nc2nc(-c3cccs3)c(NC(C)=O)s2)ccc1O`, the IC50 is 30.5 µM (active) in experiment [12] and 3.51 µM (active) in experiment [14].

On to `COc1ccc(OC)c(-c2nnc3n2N=C(c2ccc(OC)c(OC4CCCC4)c2)CS3)c1`, for which the IC50 in experiment [15] was 28.3 µM (inactive). Besides, the AC50 in [16] is 3.49 µM (active).

As to `CCOc1cc(CNc2ccc(N3CCN(C(C)=O)CC3)cc2)cc(Br)c1OC`, the IC50 in [12] is 8.75 µM (active).

For `CC(=O)N1CCN(c2ccccc2NC(=O)c2ccc(-c3cccc([N+](=O)[O-])c3)o2)CC1`, the IC50 in experiment [17] was > 79 µM (inactive); in experiment [1] it was 8.81 µM (active); in experiment [2], 12.1 µM (active).

As to `Cc1nc(C)c(-c2csc(Nc3ccc(N)cc3)n2)s1`, the IC50 in experiment [12] is 11.5 µM (active).

Take `CN/C(=C/[N+](=O)[O-])NCCSCc1ccc(CN(C)C)o1`: the AC50 in experiment [6] was 18 µM (active).
